Data from PubChem BioAssay AID1963852 (Molecular Pharmacology Branch, DTP, NCI, 2024).

Tested on: 282377-053-R-J1-PDC complex spheroid viability
Test: Anticancer human tumor 282377-053-R-J1-PDC patient-derived colon adenocarcinoma cell line growth inhibition [POLQ]
Details: for IC50: curve of first compound; for viability, T/C: stronger effect = lower value
Procedure: Multicellular complex tumor spheroid response to Polymerase (POL) inhibitors (novobiocin, ART-558, RP6685) in combination with a variety of drugs and investigational agents in selected tumor cell lines
The POL inhibitors (novobiocin, ART-558, and RP6685) were evaluated both individually and in combination with standard of care and investigational anticancer small molecules within a complex spheroid model of solid tumors. . Complex spheroids include a stromal component modeled by human endothelial cells (HUVEC) and fibroblasts modeled by human mesenchymal stem cells (MSCs). The concentration ranges selected for each drug and investigational agent were based upon clinically achievable concentrations if the clinical Cmax of the agent was known.
Compounds. The drugs and investigational agents: novobiocin (NSC847541), ART-558 (NSC835418), RP-6685 (NSC848927), peposertib (NSC802822), ceralasertib (NSC780249), elimusertib (NSC800525), camonsertib (NSC841442), AZD-1390 (NSC803789), olaparib (NSC753686), talazoparib (NSC767125), rucaparib (NSC756644), sotorasib (NSC818433), MRTX-1133 (NSC836407), SN-38 (NSC673596), topotecan (NSC609699), epotoside (NSC141540), doxorubicin (NSC123127), gemcitabine (NSC613327), 5-fluorouracil (NSC19893), paclitaxel (NSC125973), vemurafenib (NSC761431), MSA-2 (NSC828583), SN-011 (NSC837082), adavosertib (NSC754352), prexasertib (NSC758257), carboplatin (NSC241240) and oxaliplatin (NSC266046), were obtained from the National Cancer Institute (NCI) Developmental Therapeutics Program Chemical Repository (21). The FDA-approved anticancer drug set is available from the Developmental Therapeutics Program at https://dtp.cancer.gov/organization/dscb/obtaining/. […] The stock solutions were prepared in dimethyl sulfoxide (DMSO, Sigma-Aldrich, St. Louis, MO, cat. D2650), except for the platinum compounds which were prepared in saline (Quality Biological, Gaithersburg, MD, cat. 114-055-101), at 800-fold the tested concentration and stored at -70 degrees C prior to their use. All drugs and investigational agents were tested over a range starting from a high concentration at or near the clinical Cmax and decreasing in half-log increments. If the clinical Cmax for an agent had not been determined, the highest concentration tested was 10 microM, except for SN-38, which was tested at a high concentration of 1 microM.
Cell Culture. All cells were maintained in an incubator at 37 degrees C and 5% CO2 with 95% humidity. The PDC lines were cultured according to standard operating procedures established by the NCI PDMR (https://pdmr.cancer.gov). Table 3 of the manuscript, lists the cell lines along with the number of the three cell types plated to form the mct-spheroids and media for tumor cell growth. After thawing, all PDC lines, except 997537-175-T-J1-PDC and 415267-285-R-J2-PDC, were cultured in Matrigel-coated flasks prepared with a working solution of 1X Ham's F-12 nutrient mix, without supplementation (Thermo Fisher Scientific, cat. 11765054), 100 U/mL penicillin-streptomycin (Thermo Fisher Scientific, cat. 15140122), and 2.5% Matrigel (Corning Inc., Corning, NY, cat. 354248) for the first three passages. The two PDC lines 997537-175-T-J1-PDC and 415267-285-R-J2-PDC were cultured on uncoated flasks. The 857933-349-R-J2-PDC line was cultured in 6C/Colon 1B media containing advanced DMEM/F-12 (Thermo Fisher Scientific, cat. 12634028), 10 mM HEPES (Thermo Fisher Scientific, cat. 15630080), 1X GlutaMAX supplement (Thermo Fisher Scientific, cat. 35050061), 0.1 mg/mL primocin (InvivoGen, San Diego, CA, cat. ant-pm-2), 10% defined fetal bovine serum, heat inactivated (HyClone Laboratories Inc., Logan, UT, cat. SH30070.03HI), 50% L-WRN conditioned media (ATCC, cat. CRL-3276), 1.25 mM N-Acetyl-L-cysteine (Sigma-Aldrich, cat. A9165), 10 mM nicotinamide (Sigma-Aldrich, cat. N0636), 1X B-27 supplement (Thermo Fisher Scientific, cat. 17504044), 1X N-2 supplement (Thermo Fisher Scientific, cat. […]

[1] = second compound 0.0316 µM, first compound 0.0316 µM
[2] = second compound 0.0316 µM, first compound 0.1 µM
[3] = second compound 0.0316 µM, first compound 0.316 µM
[4] = second compound 0.0316 µM, first compound 1 µM
[5] = second compound 0.0316 µM, first compound 3.16 µM
[6] = second compound 0.0316 µM, first compound 10 µM
[7] = second compound 0.1 µM, first compound 0.0316 µM
[8] = second compound 0.1 µM, first compound 0.1 µM
[9] = second compound 0.1 µM, first compound 0.316 µM
[10] = second compound 0.1 µM, first compound 1 µM
[11] = second compound 0.1 µM, first compound 3.16 µM
[12] = second compound 0.1 µM, first compound 10 µM
[13] = second compound 0.316 µM, first compound 0.0316 µM
[14] = second compound 0.316 µM, first compound 0.1 µM
[15] = second compound 0.316 µM, first compound 0.316 µM
[16] = second compound 0.316 µM, first compound 1 µM
[17] = second compound 0.316 µM, first compound 3.16 µM
[18] = second compound 0.316 µM, first compound 10 µM
[19] = second compound 1 µM, first compound 0.0316 µM
[20] = second compound 1 µM, first compound 0.1 µM
[21] = second compound 1 µM, first compound 0.316 µM
[22] = second compound 1 µM, first compound 1 µM
[23] = second compound 1 µM, first compound 3.16 µM
[24] = second compound 1 µM, first compound 10 µM
[25] = second compound 3.16 µM, first compound 0.0316 µM
[26] = second compound 3.16 µM, first compound 0.1 µM
[27] = second compound 3.16 µM, first compound 0.316 µM
[28] = second compound 3.16 µM, first compound 1 µM
[29] = second compound 3.16 µM, first compound 3.16 µM
[30] = second compound 3.16 µM, first compound 10 µM
[31] = second compound 10 µM, first compound 0.0316 µM
[32] = second compound 10 µM, first compound 0.1 µM
[33] = second compound 10 µM, first compound 0.316 µM
[34] = second compound 10 µM, first compound 1 µM
[35] = second compound 10 µM, first compound 3.16 µM
[36] = second compound 10 µM, first compound 10 µM
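Also: spheroids exposed to compounds for seven days.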
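For viability, T/C in this document: 100% = DMSO vehicle control viability.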

## C=CC(=O)N1CCN(c2nc(=O)n(-c3c(C)ccnc3C(C)C)c3nc(-c4c(O)cccc4F)c(F)cc23)C(C)C1 (centres undefined) + Nc1ccc(C#CCN(C(=O)Cc2ncc(C(F)(F)F)cc2C(F)(F)F)c2ccc(F)cc2)nn1
Second compound 0.0316 µM
  IC50: > 10 µM
Second compound 0.1 µM
  IC50: > 10 µM
Second compound 0.316 µM
  IC50: > 10 µM
Second compound 1 µM
  IC50: > 10 µM
Second compound 3.16 µM
  IC50: > 10 µM
Second compound 10 µM
  IC50: > 10 µM
[1]
  viability, T/C: 95%
[2]
  viability, T/C: 107%
[3]
  viability, T/C: 94%
[4]
  viability, T/C: 90.8%
[5]
  viability, T/C: 104%
[6]
  viability, T/C: 97.5%
[7]
  viability, T/C: 95.3%
[8]
  viability, T/C: 107%
[9]
  viability, T/C: 91%
[10]
  viability, T/C: 99.7%
[11]
  viability, T/C: 113%
[12]
  viability, T/C: 83.4%
[13]
  viability, T/C: 90.4%
[14]
  viability, T/C: 88.6%
[15]
  viability, T/C: 100%
[16]
  viability, T/C: 98.7%
[17]
  viability, T/C: 101%
[18]
  viability, T/C: 94.9%
[19]
  viability, T/C: 108%
[20]
  viability, T/C: 90.9%
[21]
  viability, T/C: 111%
[22]
  viability, T/C: 91.3%
[23]
  viability, T/C: 97.7%
[24]
  viability, T/C: 86.9%
[25]
  viability, T/C: 106%
[26]
  viability, T/C: 100%
[27]
  viability, T/C: 92.8%
[28]
  viability, T/C: 108%
[29]
  viability, T/C: 91%
[30]
  viability, T/C: 87.9%
[31]
  viability, T/C: 112%
[32]
  viability, T/C: 107%
[33]
  viability, T/C: 114%
[34]
  viability, T/C: 114%
[35]
  viability, T/C: 98.7%
[36]
  viability, T/C: 106%

## CCCS(=O)(=O)Nc1ccc(F)c(C(=O)c2c[nH]c3ncc(-c4ccc(Cl)cc4)cc23)c1F + Nc1ccc(C#CCN(C(=O)Cc2ncc(C(F)(F)F)cc2C(F)(F)F)c2ccc(F)cc2)nn1
Second compound 0.0316 µM
  IC50: > 10 µM
Second compound 0.1 µM
  IC50: > 10 µM
Second compound 0.316 µM
  IC50: > 10 µM
Second compound 1 µM
  IC50: > 10 µM
Second compound 3.16 µM
  IC50: > 10 µM
Second compound 10 µM
  IC50: > 10 µM
[1]
  viability, T/C: 94.3%
[2]
  viability, T/C: 77%
[3]
  viability, T/C: 71.1%
[4]
  viability, T/C: 57.9%
[5]
  viability, T/C: 60.4%
[6]
  viability, T/C: 61.9%
[7]
  viability, T/C: 105%
[8]
  viability, T/C: 80.2%
[9]
  viability, T/C: 77%
[10]
  viability, T/C: 60.5%
[11]
  viability, T/C: 77.2%
[12]
  viability, T/C: 80.7%
[13]
  viability, T/C: 81.5%
[14]
  viability, T/C: 81%
[15]
  viability, T/C: 73%
[16]
  viability, T/C: 70.9%
[17]
  viability, T/C: 66.2%
[18]
  viability, T/C: 74.1%
[19]
  viability, T/C: 99.8%
[20]
  viability, T/C: 93.9%
[21]
  viability, T/C: 68.9%
[22]
  viability, T/C: 62.4%
[23]
  viability, T/C: 59.1%
[24]
  viability, T/C: 60.1%
[25]
  viability, T/C: 120%
[26]
  viability, T/C: 90%
[27]
  viability, T/C: 69.5%
[28]
  viability, T/C: 78.8%
[29]
  viability, T/C: 63.4%
[30]
  viability, T/C: 70.4%
[31]
  viability, T/C: 107%
[32]
  viability, T/C: 97.6%
[33]
  viability, T/C: 80.8%
[34]
  viability, T/C: 71.9%
[35]
  viability, T/C: 63.9%
[36]
  viability, T/C: 65.3%
